In PubChem BioAssay (NCI):
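Protocol summary: plate cells (96-well), add compound at 5 concentrations, incubate 48 h, interpolate endpoints linearly. TGI: total growth inhibition.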

Tests used:
Experiment in all cases: DTP human tumour cell line panel, 48 h
[1] = tested on: NCI-H23 lung
[2] = tested on: HCT-15 colon
[3] = tested on: MDA-N
[4] = tested on: HS 578T breast
[5] = tested on: M14 melanoma
[6] = tested on: SK-OV-3 ovarian
[7] = tested on: OVCAR-8 ovarian
[8] = tested on: HOP-92 NSCLC
[9] = tested on: SF-539 CNS
[10] = tested on: CCRF-CEM leukemia
[11] = tested on: OVCAR-4 ovarian
[12] = tested on: U251 CNS
[13] = tested on: HCT-116 colon
[14] = tested on: NCI/ADR-RES ovarian
[15] = tested on: DU-145 prostate
[16] = tested on: KM12 colon
[17] = tested on: NCI-H460 lung
[18] = tested on: SNB-19 CNS
[19] = tested on: SN12C renal
[20] = tested on: MDA-MB-231 breast
[21] = tested on: OVCAR-3 ovarian
[22] = tested on: SK-MEL-5 melanoma
[23] = tested on: IGROV1 ovarian
[24] = tested on: SK-MEL-2 melanoma
[25] = tested on: T-47D breast
[26] = tested on: EKVX NSCLC
[27] = tested on: TK-10 renal
[28] = tested on: UO-31 renal
[29] = tested on: SF-295 CNS
[30] = tested on: MALME-3M melanoma
[31] = tested on: CAKI-1 renal
[32] = tested on: COLO 205 colon
[33] = tested on: HT29 colon
[34] = tested on: SR leukemia
[35] = tested on: LOX IMVI melanoma
[36] = tested on: UACC-62 melanoma
[37] = tested on: OVCAR-5 ovarian
[38] = tested on: A498 renal
[39] = tested on: UACC-257 melanoma
[40] = tested on: A549 NSCLC
[41] = tested on: MOLT-4 leukemia
[42] = tested on: NCI-H226 lung
[43] = tested on: 786-0 renal
[44] = tested on: ACHN renal
[45] = tested on: RPMI-8226 leukemia
[46] = tested on: K-562 leukemia
[47] = tested on: PC-3 prostate
[48] = tested on: NCI-H522 lung
[49] = tested on: SK-MEL-28 melanoma
[50] = tested on: HOP-62 NSCLC
[51] = tested on: BT-549 breast
[52] = tested on: MDA-MB-435
[53] = tested on: HL-60(TB) leukemia
[54] = tested on: RXF 393 renal
[55] = tested on: SW-620 colon
[56] = tested on: HCC-2998 colon
[57] = tested on: SNB-75 CNS
[58] = tested on: SF-268 CNS
[59] = tested on: MCF7 breast

Q: Which results are given for `Cc1ccc(C(=O)C2C=C(c3ccc(C)cc3)SC3C=CCC32)cc1` (stereo not given)?
A: TGI [1]: 53 µM; TGI [2]: 47.9 µM; TGI [3]: 32.3 µM; TGI [4]: 73.8 µM; TGI [5]: 36.4 µM; TGI [6]: 54.3 µM; TGI [7]: 32.3 µM; TGI [8]: 34 µM; TGI [9]: 32.2 µM; TGI [10]: 38.3 µM; TGI [11]: 75.7 µM; TGI [12]: 32.5 µM; TGI [13]: 27.8 µM; TGI [14]: 40.8 µM; TGI [15]: > 100 µM; TGI [16]: 30.3 µM; TGI [17]: 37.3 µM; TGI [18]: > 100 µM; TGI [19]: 33.1 µM; TGI [20]: 43.8 µM; TGI [21]: 31.8 µM; TGI [22]: 29.2 µM; TGI [23]: 40.1 µM; TGI [24]: 36.8 µM; TGI [25]: 50.6 µM; TGI [26]: 97.6 µM; TGI [27]: 53.3 µM; TGI [28]: 29.6 µM; TGI [29]: 39.9 µM; TGI [30]: 34.1 µM; TGI [31]: 42.4 µM; TGI [32]: 38 µM; TGI [33]: 43.1 µM; TGI [34]: 58.2 µM; TGI [35]: 39.5 µM; TGI [36]: 38.8 µM; TGI [37]: 44.4 µM; TGI [38]: 58.4 µM; TGI [39]: 54.3 µM; TGI [40]: 57.1 µM; TGI [41]: 44.9 µM; TGI [42]: 66.1 µM; TGI [43]: 38.3 µM; TGI [44]: 47.7 µM; TGI [45]: 80.1 µM; TGI [46]: > 100 µM; TGI [47]: 39.4 µM; TGI [48]: 29.6 µM; TGI [49]: 33.9 µM; TGI [50]: 45.2 µM; TGI [51]: 37.3 µM; TGI [52]: 30 µM; TGI [53]: > 100 µM; TGI [54]: 37.7 µM; TGI [55]: 29.8 µM

Q: With `COC(=O)[C@H](Cc1ccccc1)NC(=O)OCC1OC(n2cc(C)c(=O)[nH]c2=O)CC1N=[N+]=[N-]` (stereo not given in full) as the compound, how does the TGI [1] read?
A: The TGI was greater than 100 µM.

Q: What about the TGI [2] of the same compound?
A: The TGI was greater than 100 µM.

Q: What about the TGI [3] of the same compound?
A: The TGI was greater than 100 µM.

Q: What about the TGI [4] of the same compound?
A: The TGI was greater than 100 µM.

Q: And the TGI [5]?
A: Its TGI is greater than 100 µM.

Q: What about the TGI [6] of the same compound?
A: The TGI was greater than 100 µM.

Q: And the TGI [7]?
A: Its TGI is greater than 100 µM.

Q: What about the TGI [56] of the same compound?
A: Its TGI is greater than 100 µM.

Q: And the TGI [8]?
A: The TGI was greater than 100 µM.

Q: What about the TGI [10] of the same compound?
A: Its TGI is greater than 100 µM.

Q: What about the TGI [57] of the same compound?
A: The TGI was greater than 100 µM.

Q: And the TGI [11]?
A: The TGI was greater than 100 µM.

Q: What about the TGI [12] of the same compound?
A: Its TGI is greater than 100 µM.

Q: What about the TGI [13] of the same compound?
A: The TGI was greater than 100 µM.

Q: What about the TGI [14] of the same compound?
A: Its TGI is greater than 100 µM.

Q: And the TGI [15]?
A: Its TGI is greater than 100 µM.

Q: And the TGI [16]?
A: The TGI was greater than 100 µM.

Q: What about the TGI [17] of the same compound?
A: The TGI was greater than 100 µM.

Q: And the TGI [18]?
A: Its TGI is greater than 100 µM.

Q: And the TGI [19]?
A: The TGI was greater than 100 µM.

Q: And the TGI [20]?
A: The TGI was greater than 100 µM.

Q: And the TGI [21]?
A: Its TGI is greater than 100 µM.

Q: And the TGI [22]?
A: Its TGI is greater than 100 µM.

Q: What about the TGI [23] of the same compound?
A: Its TGI is greater than 100 µM.

Q: What about the TGI [24] of the same compound?
A: The TGI was greater than 100 µM.

Q: What about the TGI [25] of the same compound?
A: The TGI was greater than 100 µM.

Q: What about the TGI [26] of the same compound?
A: Its TGI is greater than 100 µM.

Q: What about the TGI [27] of the same compound?
A: The TGI was greater than 100 µM.

Q: What about the TGI [28] of the same compound?
A: Its TGI is greater than 100 µM.

Q: What about the TGI [29] of the same compound?
A: The TGI was greater than 100 µM.

Q: And the TGI [30]?
A: Its TGI is greater than 100 µM.

Q: And the TGI [31]?
A: Its TGI is greater than 100 µM.

Q: What about the TGI [32] of the same compound?
A: Its TGI is greater than 100 µM.

Q: And the TGI [33]?
A: Its TGI is greater than 100 µM.

Q: What about the TGI [35] of the same compound?
A: The TGI was greater than 100 µM.

Q: And the TGI [36]?
A: Its TGI is greater than 100 µM.

Q: And the TGI [37]?
A: The TGI was greater than 100 µM.

Q: What about the TGI [39] of the same compound?
A: The TGI was greater than 100 µM.

Q: What about the TGI [40] of the same compound?
A: The TGI was greater than 100 µM.

Q: And the TGI [41]?
A: The TGI was greater than 100 µM.

Q: What about the TGI [42] of the same compound?
A: Its TGI is greater than 100 µM.

Q: What about the TGI [43] of the same compound?
A: The TGI was greater than 100 µM.

Q: What about the TGI [58] of the same compound?
A: The TGI was greater than 100 µM.

Q: What about the TGI [44] of the same compound?
A: The TGI was greater than 100 µM.

Q: And the TGI [45]?
A: The TGI was greater than 100 µM.

Q: And the TGI [46]?
A: The TGI was greater than 100 µM.

Q: What about the TGI [47] of the same compound?
A: Its TGI is greater than 100 µM.

Q: What about the TGI [48] of the same compound?
A: The TGI was greater than 100 µM.

Q: What about the TGI [50] of the same compound?
A: Its TGI is greater than 100 µM.

Q: What about the TGI [51] of the same compound?
A: The TGI was greater than 100 µM.

Q: What about the TGI [59] of the same compound?
A: The TGI was greater than 100 µM.

Q: What about the TGI [52] of the same compound?
A: The TGI was greater than 100 µM.

Q: What about the TGI [53] of the same compound?
A: The TGI was greater than 100 µM.

Q: And the TGI [54]?
A: The TGI was greater than 100 µM.

Q: And the TGI [55]?
A: Its TGI is greater than 100 µM.
